{"source": "patent US20220241249A1", "about": "“PHARMACEUTICAL COMPOSITION AND KIT CONTAINING NOVEL PENAM DERIVATIVE OR SALT THEREOF AND ONE OR MORE COMPOUNDS SELECTED FROM beta-LACTAMASE INHIBITORY COMPOUND AND ANTIBACTERIAL COMPOUND OR SALTS THEREOF” (priority 2019, published 2022)", "test_in_all_cases": "Antibacterial activity evaluation test, MIC by broth microdilution (CLSI)", "type_in_all_cases": "cell-based", "key": {"[1]": {"test_system": "CTX-M-15-containing Escherichia coli strain (TK-1747)", "details": "for MIC: Escherichia coli", "description": "(§1) The minimum inhibitory concentration (MIC) was measured according to the Clinical and Laboratory Standards Institute (CLSI) standard method by using the following broth microdilution method.\n(§2) As bacteria, a Pseudomonas aeruginosa strain ATCC27853, an AmpC-derepressed Pseudomonas aeruginosa mutant strain (S-3028), an IMP-1-containing Pseudomonas aeruginosa strain (S-2838), a VIM-2-containing Pseudomonas aeruginosa strain (S-3779), a GES-19 and GES-20-containing Pseudomonas aeruginosa strain (S-3759), a CTX-M-15-containing Escherichia coli strain (TK-1747), a KPC-2-containing Klebsiella pneumoniae strain (Y-995), an OXA-48-containing Klebsiella pneumoniae strain (Y-1062), and an NDM-1-containing Klebsiella pneumoniae strain (Y-1007) were used. The test bacterial cells that had been cultured overnight on a Mueller Hinton agar medium were scraped off, suspended at a density equivalent to 0.5 McFarland standard, and diluted 10-fold, thereby obtaining an inoculum. A cation-adjusted Mueller Hinton medium containing a test compound was inoculated with 0.005 mL of the inoculum, and the cells were cultured at 35° C. for 16 to 20 hours. The minimum drug concentration at which the growth of bacteria was not visually observed was defined as MIC (μg/mL).\n(§3) An antibacterial activity evaluation test was performed in the same manner as in Test Example 1."}, "[2]": {"test_system": "AmpC-derepressed Pseudomonas aeruginosa mutant strain (S-3028)", "details": "for MIC: Pseudomonas aeruginosa", "description": "as §1, §2, §3"}, "[3]": {"test_system": "NDM-1-containing Klebsiella pneumoniae strain (Y-1007)", "details": "for MIC: Klebsiella pneumoniae", "description": "as §1, §2, §3"}, "[4]": {"test_system": "KPC-2-containing Klebsiella pneumoniae strain (Y-995)", "details": "for MIC: Klebsiella pneumoniae", "description": "as §1, §2, §3"}, "[5]": {"test_system": "Pseudomonas aeruginosa strain ATCC27853", "details": "ATCC27853", "description": "as §1, §2, §3"}, "[6]": {"test_system": "OXA-48-containing Klebsiella pneumoniae strain (Y-1062)", "details": "for MIC: Klebsiella pneumoniae", "description": "as §1, §2, §3"}, "[7]": {"test_system": "GES-19 and GES-20-containing Pseudomonas aeruginosa strain (S-3759)", "details": "for MIC: Pseudomonas aeruginosa", "description": "as §1, §2, §3"}, "[8]": {"test_system": "VIM-2-containing Pseudomonas aeruginosa strain (S-3779)", "details": "for MIC: Pseudomonas aeruginosa", "description": "as §1, §2, §3"}, "[9]": {"test_system": "IMP-1-containing Pseudomonas aeruginosa strain (S-2838)", "details": "for MIC: Pseudomonas aeruginosa", "description": "as §1, §2, §3"}}, "note": "Read-outs that look alike come from different tables or passages of the source.", "data": [{"smiles": "Nc1nc(/C(=N/O[C@@H](CO)C(=O)O)C(=O)NC2C(=O)N3C[C@@](C(=O)O)(N4CCN(NC(=O)C(=O)c5ccc(O)c(O)c5Cl)C4=O)S[C@H]23)cs1", "note": "(stereo partly drawn) [Example 113, (3R,5R,6R)-6-((Z)-2-(2-aminothiazol-4-yl)-2-(((S)-1-carboxy-2-hydroxyethoxy)imino)-acetamido)-3-(3-(2-(2-chloro-3,4-dihydroxy-phenyl)-2-oxoaceta-mido)-2-oxoimidazol-idin-1-yl)-7-oxo-4-thia-1-azabicyclo[3.2.0]-heptane-3-carboxylic acid]", "values": [{"measurement": "MIC", "setting": "[1]", "value": "< 0.06", "unit": "µg/mL"}, {"measurement": "MIC", "setting": "[2]", "value": 0.25, "unit": "µg/mL"}, {"measurement": "MIC", "setting": "[3]", "value": "< 0.06", "unit": "µg/mL"}, {"measurement": "MIC", "setting": "[4]", "value": 0.12, "unit": "µg/mL"}, {"measurement": "MIC", "setting": "[5]; Pseudomonas aeruginosa", "value": 4, "unit": "µg/mL"}, {"measurement": "MIC", "setting": "[6]", "value": 0.25, "unit": "µg/mL"}, {"measurement": "MIC", "setting": "[7]", "value": 1, "unit": "µg/mL"}, {"measurement": "MIC", "setting": "[8]", "value": 0.5, "unit": "µg/mL"}, {"measurement": "MIC", "setting": "[9]", "value": 0.5, "unit": "µg/mL"}]}, {"smiles": "CC(C)(O/N=C(\\C(=O)N[C@@H]1C(=O)N2C[C@@](C(=O)O)(N3CC[C@H](NC(=O)C(=O)c4ccc(O)c(O)c4Cl)C3=O)S[C@H]12)c1csc(N)n1)C(=O)O", "note": "[Example 84, (3R,5R,6R)-6-((Z)-2-(2-aminothiazol-4-yl)-2-(((2-carboxypropan-2-yl)oxy)imino)acetamido)-3-((S)-3-(2-(2-chloro-3,4-dihydroxyphenyl)-2-oxoacetamido)-2-oxopyrrolidin-1-yl)-7-oxo-4-thia-1-azabicyclo[3.2.0]heptane-3-carboxylic acid]", "values": [{"measurement": "MIC", "setting": "[1]", "value": "< 0.06", "unit": "µg/mL"}, {"measurement": "MIC", "setting": "[2]", "value": 0.5, "unit": "µg/mL"}, {"measurement": "MIC", "setting": "[3]", "value": "< 0.06", "unit": "µg/mL"}, {"measurement": "MIC", "setting": "[4]", "value": 0.5, "unit": "µg/mL"}, {"measurement": "MIC", "setting": "[5]; Pseudomonas aeruginosa", "value": 0.5, "unit": "µg/mL"}, {"measurement": "MIC", "setting": "[6]", "value": "< 0.06", "unit": "µg/mL"}, {"measurement": "MIC", "setting": "[7]", "value": 1, "unit": "µg/mL"}, {"measurement": "MIC", "setting": "[8]", "value": 0.5, "unit": "µg/mL"}, {"measurement": "MIC", "setting": "[9]", "value": 0.5, "unit": "µg/mL"}]}, {"smiles": "CC(C)(O/N=C(\\C(=O)N[C@@H]1C(=O)N2C[C@@](C(=O)O)(N3CCN(NC(=O)C(=O)NCCNC(=O)c4ccc(O)c(O)c4Cl)C3=O)S[C@H]12)c1csc(N)n1)C(=O)O", "note": "[Example 68, (3R,5R,6R)-6-((Z)-2-(2-aminothiazol-4-yl)-2-(((2-carboxypropan-2-yl)oxy)imino)acetamido)-3-(3-(2-((2-(2-chloro-3,4-dihydroxybenzamido)ethyl)amino)-2-oxoacetamido)-2-oxoimidazolidin-1-yl)-7-oxo-4-thia-1-azabicyclo[3.2.0]heptane-3-carboxylic acid]", "values": [{"measurement": "MIC", "setting": "[1]", "value": 1, "unit": "µg/mL"}, {"measurement": "MIC", "setting": "[2]", "value": 0.25, "unit": "µg/mL"}, {"measurement": "MIC", "setting": "[3]", "value": "< 0.06", "unit": "µg/mL"}, {"measurement": "MIC", "setting": "[4]", "value": 0.5, "unit": "µg/mL"}, {"measurement": "MIC", "setting": "[5]; Pseudomonas aeruginosa ATCC 27853, 35° C., 16 to 20 hours, read-out: MIC", "value": 1, "unit": "µg/mL"}, {"measurement": "MIC", "setting": "[6]", "value": 1, "unit": "µg/mL"}, {"measurement": "MIC", "setting": "[7]", "value": 4, "unit": "µg/mL"}, {"measurement": "MIC", "setting": "[8]", "value": 2, "unit": "µg/mL"}, {"measurement": "MIC", "setting": "[9]", "value": 1, "unit": "µg/mL"}]}, {"smiles": "CC(C)(O/N=C(\\C(=O)N[C@@H]1C(=O)N2C[C@@](C(=O)O)(N3CCN(NC(=O)c4c[nH]c5cc(O)c(O)cc5c4=O)C3=O)S[C@H]12)c1csc(N)n1)C(=O)O", "note": "[Example 154, (3R,5R,6R)-6-((Z)-2-(2-aminothiazol-4-yl)-2-(((2-carboxypropan-2-yl)oxy)imino)acetamido)-3-(3-(6,7-dihydroxy-4-oxo-1,4-dihydroquinoline-3-carboxamido)-2-oxoimidazolidin-1-yl)-7-oxo-4-thia-1-azabicyclo[3.2.0]heptane-3-carboxylic acid]", "values": [{"measurement": "Antibacterial activity (MIC) Escherichia coli TK-1747", "setting": "[1]; Escherichia coli TK-1747", "value": 0.5, "unit": "µg/mL"}, {"measurement": "Antibacterial activity (MIC) Pseudomonas aeruginosa S-3028", "setting": "[2]; Pseudomonas aeruginosa S-3028", "value": 0.5, "unit": "µg/mL"}, {"measurement": "Antibacterial activity (MIC) Klebsiella pneumoniae Y-1007", "setting": "[3]; Klebsiella pneumoniae Y-1007", "value": 0.25, "unit": "µg/mL"}, {"measurement": "Antibacterial activity (MIC) Klebsiella pneumoniae Y-995", "setting": "[4]; Klebsiella pneumoniae Y-995", "value": 0.25, "unit": "µg/mL"}, {"measurement": "Antibacterial activity (MIC) Pseudomonas aeruginosa ATCC 27853", "setting": "[5]; Pseudomonas aeruginosa", "value": 2, "unit": "µg/mL"}, {"measurement": "Antibacterial activity (MIC) Klebsiella pneumoniae Y-1062", "setting": "[6]; Klebsiella pneumoniae Y-1062", "value": 2, "unit": "µg/mL"}, {"measurement": "Antibacterial activity (MIC) Pseudomonas aeruginosa S-3759", "setting": "[7]; Pseudomonas aeruginosa S-3759", "value": 4, "unit": "µg/mL"}, {"measurement": "Antibacterial activity (MIC) Pseudomonas aeruginosa S-3779", "setting": "[8]; Pseudomonas aeruginosa S-3779", "value": 2, "unit": "µg/mL"}, {"measurement": "Antibacterial activity (MIC) Pseudomonas aeruginosa S-2838", "setting": "[9]; Pseudomonas aeruginosa S-2838", "value": 4, "unit": "µg/mL"}]}, {"smiles": "CC[C@H](O/N=C(\\C(=O)N[C@@H]1C(=O)N2C[C@@](C(=O)O)(N3CCN(NC(=O)C(=O)c4ccc(O)c(O)c4Cl)C3=O)S[C@H]12)c1csc(N)n1)C(=O)O", "note": "[Example 105, (3R,5R,6R)-6-((Z)-2-(2-aminothiazol-4-yl)-2-(((S)-1-carboxypropoxy)imino)acetamido)-3-(3-(2-(2-chloro-3,4-dihydroxyphenyl)-2-oxoacetamido)-2-oxoimidazolidin-1-yl)-7-oxo-4-thia-1-azabicyclo[3.2.0]heptane-3-carboxylic acid]", "values": [{"measurement": "MIC", "setting": "[1]", "value": 0.5, "unit": "µg/mL"}, {"measurement": "MIC", "setting": "[2]", "value": "< 0.06", "unit": "µg/mL"}, {"measurement": "MIC", "setting": "[3]", "value": "< 0.06", "unit": "µg/mL"}, {"measurement": "MIC", "setting": "[4]", "value": 0.12, "unit": "µg/mL"}, {"measurement": "MIC", "setting": "[5]; Pseudomonas aeruginosa", "value": 0.25, "unit": "µg/mL"}, {"measurement": "MIC", "setting": "[6]", "value": 0.5, "unit": "µg/mL"}, {"measurement": "MIC", "setting": "[7]", "value": 0.5, "unit": "µg/mL"}, {"measurement": "MIC", "setting": "[8]", "value": 0.25, "unit": "µg/mL"}, {"measurement": "MIC", "setting": "[9]", "value": 0.25, "unit": "µg/mL"}]}]}
